Measurements from PubChem BioAssay (NCI).
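Dose response: 5 concentrations. Exposure: 48 h. Format: 96-well plates. Endpoint: linear interpolation; highest concentration if not reached. TGI: total growth inhibition.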

Experiments:
Test in all cases: growth of human tumour cells (NCI), 48 h
HCC-2998 colon = tested on: HCC-2998 colon
MOLT-4 leukemia = tested on: MOLT-4 leukemia
SW-620 colon = tested on: SW-620 colon
OVCAR-3 ovarian = tested on: OVCAR-3 ovarian
K-562 leukemia = tested on: K-562 leukemia
SK-MEL-28 melanoma = tested on: SK-MEL-28 melanoma
DU-145 prostate = tested on: DU-145 prostate
HT29 colon = tested on: HT29 colon
CAKI-1 renal = tested on: CAKI-1 renal
MALME-3M melanoma = tested on: MALME-3M melanoma

SMILES | TGI (HCC-2998 colon) [µM] | TGI (MOLT-4 leukemia) [µM] | TGI (SW-620 colon) [µM] | TGI (OVCAR-3 ovarian) [µM] | TGI (K-562 leukemia) [µM] | TGI (SK-MEL-28 melanoma) [µM] | TGI (DU-145 prostate) [µM] | TGI (HT29 colon) [µM] | TGI (CAKI-1 renal) [µM] | TGI (MALME-3M melanoma) [µM]
Cn1c2ccccc2n2c(=O)c3cc([N+](=O)[O-])ccc3c(C#N)c12 | > 100 | > 100 | > 100 | > 100 | > 100 | > 100 | > 100 | > 100 |  | 
O=C1NC2OC(CO)C(O)C(O1)C2O (stereo not given) |  | > 100 | > 100 | > 100 | > 100 | > 100 |  | > 100 | > 100 | > 100
O=C(Cc1ccccc1)NN1C(=O)/C(=C\c2ccc([N+](=O)[O-])cc2)SC1=Nc1ccccc1 | > 100 | > 100 | > 100 | > 100 | > 100 | > 100 | > 100 | > 100 |  | 
O=c1c(-c2ccc(Cl)cc2)nnc2n(Cc3ccccc3)c3ccccc3n12 | > 100 | > 100 | > 100 |  |  | > 100 | > 100 | > 100 | 59.8 | > 100
Cc1cccc(C)c1NC(=O)C(=O)C1C(=O)NC(=O)NC1=O | > 100 | > 100 | > 100 | > 100 | > 100 | > 100 |  | > 100 | > 100 | > 100
CCOc1cc(-c2nc3ccccn3c2/N=C/c2cc(Br)ccc2O)ccc1O |  | > 100 | > 100 | 34 | > 100 | > 100 | 70.3 | > 100 | > 100 | > 100
O=c1[nH]nc(-c2ccccc2)c2[nH]c(-c3ccccc3)cc12 |  | > 100 | > 100 | > 100 | > 100 |  | > 100 | > 100 | > 100 | > 100
CSC(C1c2ccccc2N(c2ccc(C)cc2)C2=NC(=O)N(C)C(=O)C21Cl)S(=O)(=O)c1ccc(C)cc1 (stereo not given) | 36.6 | 32 | 85.9 | 30.9 | 53.9 | 45.1 |  | 57 | 43.2 | 32.6
O=C(Cc1ccc([N+](=O)[O-])cc1)OCC#CCOC(=O)Cc1ccc([N+](=O)[O-])cc1 |  | > 10 | > 10 | > 10 | > 10 |  |  | > 10 |  | > 10
Cc1cc2ncc3c(=O)n(NS(=O)(=O)c4ccc(N)cc4)ccc3n2n1 |  | > 100 | > 100 | > 100 |  | > 100 | > 100 | > 100 | > 100 | > 100
COc1c(Br)cc(CC(N)=O)c(O)c1Br | > 100 | > 100 | > 100 | > 100 | > 100 | > 100 |  | > 100 | > 100 | > 100
FC(F)(F)c1ccc2nc3n(c2c1)C(c1c(Cl)cccc1Cl)SC3 (stereo not given) | 35 | > 100 | 34.9 | 29.4 |  | 29.5 | 32.3 | 30.4 | 28 | 29.9
NC(=O)c1cc2ccccc2o/c1=N/O | > 100 | > 100 | > 100 | > 100 | > 100 | > 100 | > 100 | > 100 | 70.3 | 
Brc1cccc(N=NN2CCCC2)c1 |  | > 100 | > 100 | > 100 | > 100 |  | > 100 |  | > 100 | 
O=[N+]([O-])c1ccc(NC(=S)N=Nc2c(O)[nH]c3ccc(Br)cc23)cc1 |  | > 100 | 30 | 21.8 | > 100 | 33.5 | 24.2 | 24.9 | 20.6 | 20.2
OC1(c2ccc(Cl)cc2)c2ccc3ccccc3c2C2=N[C@H]3CCCC[C@@H]3N21 (stereo not given in full) |  | > 100 | > 100 | 21.9 | > 100 | > 100 | 37.2 |  | 67.1 | 0.93
CC(=O)OCC(OC(C)=O)C1C[C@H]2O[C@@H]3[C@H](C[C@H]2O1)O[C@@]1(C[C@@H]3C)C[C@H](C)[C@@H]2O[C@]3(C[C@@H]2O1)C[C@H]1O[C@H]2[C@H](C)[C@H]4OC(=O)CC5CC[C@H]6OC7[C@H]8O[C@]9(CC[C@H]%10CC(O)(CO)[C@H](CC[C@H]%11C[C@@H](C)C(O)(CO)C(C[C@@H]4O[C@H]2C[C@H]1O3)O%11)O%10)CC8O[C@@H]7[C@@H](O9)[C@H]6O5 (stereo not given in full) |  | > 1 | > 1 | > 1 | > 1 | > 1 | 0.0688 |  | > 1 | > 1
O=C(N/N=C/c1ccco1)c1cc(I)cc(I)c1O |  | > 50 | > 50 |  | > 50 | > 50 | > 50 | > 50 | > 50 | > 50
CCOC(=O)/C(C#N)=N\Nc1ccc(-n2c(C)nc3ccccc3c2=O)cc1 |  | > 100 | > 100 | 82.4 | > 100 | > 100 | > 100 | > 100 | > 100 | 
CC(C)(C)c1cc(/C=C(\C#N)C(=O)NCCO)cc(C(C)(C)C)c1O |  | 59.1 | 97 | 33.5 | 86.7 | 47.1 | > 100 | 51.7 | 77.6 | 61.9
COCc1nc2c(OC)cc(-c3nc4ccc(N5CCN(C)CC5)cc4[nH]3)c(OC)c2[nH]1 |  | > 100 | > 100 | 77.5 | > 100 | > 100 | > 100 | > 100 | > 100 | 31.6
CCC(=O)Oc1c2ccsc2c(OC(=O)CC)c2ccsc12 | 3.49 | > 100 | 2.33 |  |  | 0.353 | 0.679 | 5.56 | 6.13 | 0.14
CCOn1c(C2(CC3CCN(C(=O)c4ccccc4)CC3)OCCO2)cc2ccccc21 |  | 31.3 | 35.7 | 30 | 38.2 | 27.7 | 31.9 | 34.2 | 30.2 | 33.2
